According to US7452549B2, “Synergistic antioxidant combination of delta tocols and polyphenols” (Nestec S.A., priority 2001, dated 2008):

System: LDL fraction
Assay: Oxidation of LDL in vitro (Cu2+-initiated, conjugated diene absorbance at 234 nm, lag phase)
Assay type: biochemical, human
Conditions: for synergistic antioxidant properties in combination with TRF or purified δ-tocol: non-polyphenolic antioxidants
Description: Oxidation of LDL In Vitro Plasma was obtained from the blood of healthy male and female volunteers and was frozen. […] Tubes were then centrifuged at 400 000 g at 15° C. for 2 hours. The top fraction (chylomicrons+VLDL) was removed. […] After centrifugation at 400 000 g at 15° C. for 2 hours, the LDL fraction floating on the top was collected. […] The fractions were supplemented with ethanolic solutions containing various extracts or with the same volume of pure ethanol (control). Oxidation was initiated by adding freshly-prepared CuSO4 solution (25 μmol/l final concentration) at 37° C. The kinetics of the oxidation of lipoprotein was determined by continuously monitoring the change in absorbance at 234 nm (at 37° C.) on a UV/VIS spectrophotometer, which correlates with the increase in conjugated diene absorbance. […] The time required for the formation of diene is defined as the lag phase. The longer the lag phase the better the protection of LDL against oxidation. […] Concentration-response curves for the LDL oxidation assay were plotted separately for each of the tocol preparations, and for the water-soluble antioxidant preparations (see FIGS. 1 to 5). In each experiment, the tocotrienol content of the tocol preparations (TRF) was standardised to 0.05 or 0.1 μg/ml.

| Compound | synergistic antioxidant properties in combination with TRF or purified δ-tocol | synergistic effect with polyphenols in in vitro LDL oxidation studies | relative performance of δ-tocotrienol vs δ-tocopherol in in vitro LDL oxidation studies |
| --- | --- | --- | --- |
| CC(=O)N[C@@H](CS)C(=O)O [N-acetylcysteine] | same lack of synergy |  |  |
| O=C1O[C@H]([C@@H](O)CO)C(O)=C1O [ascorbic acid] | not to have synergistic antioxidant properties |  |  |
| O=C(O)CCCCC1CCSS1 (stereo not drawn) [α-lipoic acid] | same lack of synergy |  |  |
| Cc1cc(O)cc2c1O[C@](C)(CCC[C@H](C)CCC[C@H](C)CCCC(C)C)CC2 [δ-tocopherol] |  | remarkable synergistic effects |  |
| CC(C)=CCC/C(C)=C/CC/C(C)=C/CC[C@]1(C)CCc2cc(O)cc(C)c2O1 [δ-tocotrienol] |  | remarkable synergistic effects | performs marginally better |
